The first assay concerns the target T1, recombinant human MAO-A (Homo sapiens, UniProt P21397).
T1 construct: purchased BD Biosciences (Bedford, MA, USA)
T1 sequence (P21397 1-527): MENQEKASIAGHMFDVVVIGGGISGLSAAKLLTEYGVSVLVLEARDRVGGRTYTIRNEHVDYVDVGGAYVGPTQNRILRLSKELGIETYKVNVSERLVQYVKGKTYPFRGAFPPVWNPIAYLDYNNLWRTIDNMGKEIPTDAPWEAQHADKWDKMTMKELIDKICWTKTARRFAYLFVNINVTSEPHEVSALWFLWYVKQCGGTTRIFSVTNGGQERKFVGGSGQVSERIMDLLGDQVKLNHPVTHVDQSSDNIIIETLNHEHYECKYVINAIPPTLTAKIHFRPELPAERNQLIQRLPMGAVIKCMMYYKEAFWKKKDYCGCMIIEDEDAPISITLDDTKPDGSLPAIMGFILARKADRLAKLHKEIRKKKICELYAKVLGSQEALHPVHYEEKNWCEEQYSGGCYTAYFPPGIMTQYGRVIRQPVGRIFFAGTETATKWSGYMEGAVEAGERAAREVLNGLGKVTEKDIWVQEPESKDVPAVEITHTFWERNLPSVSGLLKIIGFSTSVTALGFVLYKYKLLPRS
The assay is described as follows: In vitro MAO inhibition assay (kynuramine oxidative deamination), IC50. The class given is biochemical. As to conditions: rhMAO-A, kynuramine 80 μM, steady-state, mean ± SD. The protocol:
(§1) A fixed concentration of kynuramine substrate and varying concentrations of the test compounds were used to determine the IC50 values. Kynuramine concentrations for MAO-A and -B assays were 80 μM and 50 μM, respectively. The concentrations of PQ and NPC1161 enantiomers varied from 0.1 μM to 200 μM, for the rhMAO-A and -B enzyme activity inhibition. The test compounds were dissolved in DMSO, diluted in the buffer solution just before the assay, and pre-incubated with the enzyme (MAO-A (5 μg/mL) or -B (12.5 μg/mL)) for 10 min at 37 °C. […] The enzymatic reactions were initiated by the addition of the substrate (kynuramine 80 and 50 μM, for MAO-A and -B, respectively) and incubated for 20 min at 37 °C. The enzyme reactions were terminated by the addition of 78 μL of 2N NaOH to each well. The formation of 4-hydroxyquinoline (the enzyme reaction end product) was recorded fluorometrically on a SpectraMax M5 fluorescence plate reader (Molecular Devices, Sunnyvale, CA, USA) with 320 nm excitation and 380 nm emission wavelengths, using the Soft MaxPro-6 program. The inhibition of enzyme activity was calculated in terms of product formation as a percentage of corresponding controls (enzyme–substrate reaction without inhibitors). Assay controls, to define the interference of the test compounds with the fluorescence measurements, were set up simultaneously, and the enzyme or substrate was added after stopping the reaction.
(§2) The enzyme assays were performed at a steady-state fixed concentration of the substrate kynuramine (80 μM for MAO-A and 50 μM for MAO-B) and different concentrations of the test compounds (PQ and NPC1161 enantiomers). The dose–response enzyme-inhibition curves were generated using Microsoft® Excel (Figure 2), and the IC50 values were computed with XLfit®.
Consider `COc1cc(C)c2c(Oc3cccc(C(F)(F)F)c3)c(OC)cc(NC(C)CCCN)c2n1` (stereo not drawn) [Tafenoquine, 4-N-[2,6-dimethoxy-4-methyl-5-[3-(trifluoromethyl)phenoxy]quinolin-8-yl]pentane-1,4-diamine], for which the IC50 was found to be 2.7 ± 0.14 µM.

Another assay concerns the target T2, recombinant human MAO-B (Homo sapiens, UniProt P27338).
T2 construct: purchased BD Biosciences (Bedford, MA, USA)
T2 sequence (P27338 1-520): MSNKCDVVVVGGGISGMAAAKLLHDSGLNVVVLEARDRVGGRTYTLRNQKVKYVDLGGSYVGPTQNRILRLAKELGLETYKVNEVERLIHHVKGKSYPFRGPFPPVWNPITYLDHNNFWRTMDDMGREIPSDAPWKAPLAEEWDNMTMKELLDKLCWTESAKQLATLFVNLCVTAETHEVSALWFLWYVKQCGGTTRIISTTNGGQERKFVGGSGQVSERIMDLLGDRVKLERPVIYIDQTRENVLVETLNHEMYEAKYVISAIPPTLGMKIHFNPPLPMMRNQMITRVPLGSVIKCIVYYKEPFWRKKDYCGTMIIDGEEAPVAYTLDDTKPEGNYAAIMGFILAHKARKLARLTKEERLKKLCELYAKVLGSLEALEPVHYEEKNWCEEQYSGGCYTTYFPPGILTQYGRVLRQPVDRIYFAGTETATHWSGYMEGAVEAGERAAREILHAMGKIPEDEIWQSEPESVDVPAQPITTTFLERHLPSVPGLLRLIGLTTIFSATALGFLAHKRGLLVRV
The assay is described as above. The class given is biochemical. The following applies: rhMAO-B, kynuramine 50 μM, steady-state, mean ± SD. The protocol: as §1, §2
For `COc1cc(NC(C)CCCN)c2ncccc2c1` (racemic) [(RS)-(±)-Primaquine, Primaquine], the IC50 stood at 107 ± 1.18 µM.
As for `COc1cc(N[C@H](C)CCCN)c2ncccc2c1` [(R)-(−)-Primaquine], the IC50 turned out to be 117 ± 8.82 µM.
Take `COc1cc(N[C@@H](C)CCCN)c2ncccc2c1` [(S)-(+)-Primaquine]: the IC50 came to 170 ± 15.3 µM.
Same read-out and setting: next, `COc1cc(C)c2c(Oc3cccc(C(F)(F)F)c3)c(OC)cc(NC(C)CCCN)c2n1` (stereo not drawn) [Tafenoquine, 4-N-[2,6-dimethoxy-4-methyl-5-[3-(trifluoromethyl)phenoxy]quinolin-8-yl]pentane-1,4-diamine]: 0.95 ± 0.07 µM; `COc1ccc2c(c1)[nH]c1c(C)nccc12` [Harmine]: 53.1 ± 3.91 µM.

Broadly, the IC50 is the concentration needed to halve the response being measured.

The record behind these values is paper PMC8146505, “Enantioselective Interactions of Anti-Infective 8-Aminoquinoline Therapeutics with Human Monoamine Oxidases A and B” (Pharmaceuticals, 2021).
